Experimental data taken from patent US7704525B2, “Lipid microparticles by cryogenic micronization” (Ares Trading S.A., priority 2000, dated 2010).

Assay: Partition coefficient octanol/water of Antide
Type: physicochemical
Conditions: 24 hours stirring at room temperature, RP-HPLC
Description: Partition coefficient: it was determined using octanol as organic phase and water as hydrophilic phase. The two phases were first saturated with each other for 24 hours at room temperature. Antide was then dissolved in the water phase at a concentration well below saturation. An equal volume of organic phase was subsequently added to the water phase and the mixture was kept under stirring for 24 hours at room temperature. Antide concentration in the two phases was determined by RP-HPLC and the partition coefficient was obtained from the ratio between the drug concentration in organic and water phase.
The resulting octanol/water coefficient was 8.56·10^−2

octanol/water coefficient: 8.56·10^−2
Substance: N—Ac-D-2-NaI, D-pCiPhe, D-3-Pal, Ser, NicLys, D-NicLys, Leu, Ilys, Pro, D-Ala, NH2 [Antide]
